In US7687643B2, “Process for preparing 3,3-dimethylindolines” (Amgen Inc., priority 2001, dated 2010) one finds IC50 data, which are given here for 28 compounds.

Each structure is given as a SMILES string.

For this assay, the system named is Human Umbilical Vein Endothelial cells (VEGF-stimulated). Kind of assay: HUVEC proliferation assay, VEGF-stimulated. The format is cell-based. The conditions noted are these: VEGF 50 ng/mL, 72 h, CyQuant, read-out: inhibited VEGF-stimulated HUVEC proliferation at a level. Here is the method:
Human Umbilical Vein Endothelial cells are purchased from Clonetics, Inc., as cryopreserved cells harvested from a pool of donors. These cells, at passage 1, are thawed and expanded in EBM-2 complete medium, until passage 2 or 3. The cells are trypsinized, washed in DMEM+10% FBS+antibiotics, and spun at 1000 rpm for 10 min. Prior to centrifugation of the cells, a small amount is collected for a cell count. After centrifugation, the medium is discarded, and the cells are resuspended in the appropriate volume of DMEM+10% FBS+antibiotics to achieve a concentration of 3×10^5 cells/mL. Another cell count is performed to confirm the cell concentration. The cells are diluted to 3×10^4 cells/mL in DMEM+10% FBS+antibiotics, and 100 μL of cells are added to a 96-well plate. The cells are incubated at 37° C. for 22 h.
Prior to the completion of the incubation period, compound dilutions are prepared. Five-point, five-fold serial dilutions are prepared in DMSO, at concentrations 400-fold greater than the final concentrations desired. 2.5 μL of each compound dilution are diluted further in a total of 1 mL DMEM+10% FBS+antibiotics (400× dilution). Medium containing 0.25% DMSO is also prepared for the 0 μM compound sample. At the 22-hour timepoint, the medium is removed from the cells, and 100 μL of each compound dilution is added. The cells are incubated at 37° C. for 2-3 h.
During the compound pre-incubation period, the growth factors are diluted to the appropriate concentrations. Solutions of DMEM+10% FBS+antibiotics, containing either VEGF or bFGF at the following concentrations: 50, 10, 2, 0.4, 0.08, and 0 ng/mL are prepared. For the compound-treated cells, solutions of VEGF at 550 ng/mL or bFGF at 220 ng/mL for 50 ng/mL or 20 ng/mL final concentrations, respectively, are prepared since 10 μL of each will be added to the cells (110 μL final volume). At the appropriate time after adding the compounds, the growth factors are added. VEGF is added to one set of plates, while bFGF is added to another set of plates. For the growth factor control curves, the media on wells B4-G6 of plates 1 and 2 are replaced with media containing VEGF or bFGF at the varying concentrations (50-0 ng/mL). The cells are incubated at 37° C. for an additional 72 h.
At the completion of the 72 h incubation period, the medium is removed, and the cells are washed twice with PBS. After the second wash with PBS, the plates are tapped gently to remove excess PBS, and the cells are placed at −70° C. for at least 30 min. The cells are thawed and analyzed using the CyQuant fluorescent dye (Molecular Probes C-7026), following the manufacturer's recommendations. The plates are read on a Victor/Wallac 1420 workstation at 485 nm/530 nm (excitation/emission). Raw data are collected and analyzed using a 4-parameter fit equation in XLFit. IC50 values are then determined.

As to `O=C(Nc1cc(NC(=O)c2cccnc2NCc2ccncc2)cc(C(F)(F)F)c1)O[C@H]1CCOC1` [Example 1088, (3S)-tetrahydro-3-furanyl 3-(((2-((4-pyridinylmethyl)amino)-3-pyridinyl)carbonyl)amino)-5-(trifluoromethyl)phenylcarbamate], the IC50 was below 50 nM. The value for `CC1(C)CNCc2cc(NC(=O)c3cccnc3NCc3ccnc4[nH]ccc34)ccc21` [Example 1145, N-(4,4-Dimethyl-1,2,3,4-tetrahydro-isoquinolin-7-yl)-2-[(1H-pyrrolo[2,3-b]pyridin-4-ylmethyl)-amino]-nicotinamide] was below 50 nM. `CC1(C)CNCc2cc(NC(=O)c3cccnc3NCc3ccnc4ccccc34)ccc21` [Example 1192, N-(4,4-Dimethyl-1,2,3,4-tetrahydro-isoquinolin-7-yl)-2-[(quinolin-4-ylmethyl)-amino]-nicotinamide]: the IC50 was below 50 nM.

`O=C(Nc1cccc(C(F)(F)F)c1)c1cccnc1NCc1ccncc1` [Example 82, 2-[(Pyridin-4-ylmethyl)-amino]-N-(3-trifluoromethyl-phenyl)-nicotinamide]: the IC50 is below 50 nM. Regarding `CC1(C)CNC(=O)c2cc(NC(=O)c3cccnc3NCc3ccncc3)ccc21` [Example 946, N-(4,4-Dimethyl-1-oxo-1,2,3,4-tetrahydro-isoquinolin-7-yl)-2-[(pyridin-4-ylmethyl)-amino]-nicotinamide], the IC50 was below 50 nM.

For the compound `CC1(C)COc2cc(NC(=O)c3cccnc3NCc3ccncc3)ccc21` [Example 973, N-(3,3-Dimethyl-2,3-dihydro-benzofuran-6-yl)-2-[(pyridin-4-ylmethyl)-amino]-nicotinamide], the IC50 was below 50 nM. On to `COc1cc(CNc2ncccc2C(=O)Nc2ccc3c(c2)NC(=O)CC3(C)C)ccn1` [Example 1116, N-(4,4-Dimethyl-2-oxo-1,2,3,4-tetrahydro-quinolin-7-yl)-2-[(2-methoxy-pyridin-4-ylmethyl)-amino]-nicotinamide], for which the IC50 was below 50 nM. In the case of `CC(C)(C)c1ccc(NC(=O)c2ccc(F)nc2NCc2ccncc2)cc1` [Example 154, N-[4-(tert-Butyl)phenyl]{6-fluoro-2-[(4-pyridylmethyl)amino](3-pyridyl)}carboxamide], the IC50 is below 50 nM. Take `O=C(Nc1ccc(C(F)(F)C(F)(F)F)c(OCCN2CCCCC2)c1)c1cccnc1NCc1ccncc1` [Example 955, N-[4-Pentafluoroethyl-3-(2-piperidin-1-yl-ethoxy)-phenyl]-2-[(pyridin-4-ylmethyl)-amino]-nicotinamide]: the IC50 was below 50 nM. Take `O=C(Nc1ccc(C(OC[C@@H]2CCCN2)(C(F)(F)F)C(F)(F)F)cc1)c1cccnc1NCc1ccncc1` [Example 1141, 2-[(Pyridin-4-ylmethyl)-amino]-N-{4-[2,2,2-trifluoro-1-(pyrrolidin-2-ylmethoxy)-1-trifluoromethyl-ethyl]-phenyl}-nicotinamide]: the IC50 was below 50 nM. With `COc1cc(CNc2ncccc2C(=O)Nc2ccc3c(c2)NCC3(C)C)ccn1` [Example 1000, N-(3,3-dimethyl-2,3-dihydro-1H-indol-6-yl)-2-[(2-methoxy-pyridin-4-ylmethyl)-amino]-nicotinamide], the IC50 is below 50 nM. For the compound `CNc1nccc(CNc2ncccc2C(=O)Nc2ccc3c(c2)NCC3(C)C)n1` [Example 1040, N-(3,3-Dimethyl-2,3-dihydro-1H-indol-6-yl)-2-(((2-(methylamino)-4-pyrimidinyl)methyl)amino)-3-pyridinecarboxamide], the IC50 was below 50 nM. For the compound `O=C(Nc1ccc(C(F)(F)F)cc1)c1cccnc1NCc1ccncc1` [Example 165, {2-[(4-Pyridylmethyl)amino](3-pyridyl)}-N-[4-(trifluoromethyl)phenyl]carboxamide], the IC50 was below 50 nM. As for `CCc1cc(CNc2ncccc2C(=O)Nc2ccc(C(C)(C)C)cc2)ccn1` [Example 873, N-(4-tert-Butyl-phenyl)-2-{[2-ethylpyridin-4-ylmethyl]-amino}-nicotinamide], the IC50 was below 50 nM.

With `O=C(Nc1ccc(C(F)(F)C(F)(F)F)cc1)c1cccnc1NCc1ccncc1` [Example 78, N-[4-(1,1,2,2,2-Pentafluoroethyl)phenyl]{2-[(4-pyridylmethyl)amino](3-pyridyl)}carboxamide], the IC50 was below 50 nM.

Consider `CNc1nccc(CNc2ncccc2C(=O)Nc2cc(OC[C@H]3CCCN3C(C)=O)cc(C(F)(F)F)c2)n1` [Example 1085, N-(3-((((2R)-1-acetyl-2-pyrrolidinyl)methyl)oxy)-5-(trifluoromethyl)phenyl)-2-(((2-(methylamino)-4-pyrimidinyl)methyl)amino)-3-pyridinecarboxamide], for which the IC50 was below 50 nM. As for `COc1nccc(CNc2ncccc2C(=O)Nc2cc(OC[C@@H]3CCCN3C)cc(C(F)(F)F)c2)n1` [Example 1047, 2-(((2-(methyloxy)-4-pyrimidinyl)methyl)amino)-N-(3-((((2S)-1-methyl-2-pyrrolidinyl)methyl)oxy)-5-(trifluoromethyl)phenyl)-3-pyridinecarboxamide], the IC50 was below 50 nM. For the compound `O=C(Nc1ccc(Cl)cc1)c1ncccc1NCc1ccc2ncccc2c1` [Example 7, N-(4-Chlorophenyl){3-[(6-quinolylmethyl)amino](2-pyridyl)}carboxamide], the IC50 was below 50 nM. For the compound `O=C(Nc1ccc(Cl)cc1)c1cccnc1NCc1ccc2ncccc2c1` [Example 21, N-(4-Chlorophenyl){2-[(6-quinolylmethyl)amino](3-pyridyl)}carboxamide], the IC50 was below 50 nM. Regarding `CC1(C)CCNc2cc(NC(=O)c3cccnc3NCc3ccncn3)ccc21` [Example 1110, N-(4,4-Dimethyl-1,2,3,4-tetrahydro-quinolin-7-yl)-2-[(pyrimidin-4-ylmethyl)-amino]-nicotinamide], the IC50 was below 50 nM. Consider `CS(=O)(=O)Nc1cc(NC(=O)c2cccnc2NCc2ccncc2)cc(C(F)(F)F)c1` [Example 1095, N-(3-((methylsulfonyl)amino)-5-(trifluoromethyl)phenyl)-2-((4-pyridinylmethyl)amino)-3-pyridinecarboxamide], for which the IC50 was below 50 nM. As for `CN1CC(C)(C)Oc2ccc(NC(=O)c3cccnc3NCc3ccncc3)cc21` [Example 942, 2-[(Pyridin-4-ylmethyl)-amino]-N-(2,2,4-trimethyl-3,4-dihydro-2H-benzo[1,4]oxazin-6-yl)-nicotinamide], the IC50 is below 50 nM.

In the case of `CC1(C)CCNc2cc(NC(=O)c3cccnc3NCc3ccncc3)ccc21` [Example 1109, N-(4,4-Dimethyl-1,2,3,4-tetrahydro-quinolin-7-yl)-2-[(pyridin-4-ylmethyl)-amino]-nicotinamide], the IC50 is below 50 nM. In the case of `CC1(C)CN(C(=O)c2cc[n+]([O-])cc2)c2cc(NC(=O)c3cccnc3NCc3ccncc3)ccc21` [Example 1100, N-[3,3-Dimethyl-1-(1-oxy-pyridine-4-carbonyl)-2,3-dihydro-1H-indol-6-yl]-2-[(pyridin-4-ylmethyl)-amino]-nicotinamide], the IC50 was below 50 nM.

Consider `CC1(C)CNCc2cc(NC(=O)c3cccnc3NCc3ccc4ncccc4c3)ccc21` [Example 1061, N-(4,4-dimethyl-1,2,3,4-tetrahydro-7-isoquinolinyl)-2-((6-quinolinylmethyl)amino)-3-pyridinecarboxamide], for which the IC50 is below 50 nM. In the case of `CN(C)CC(=O)Nc1cc(NC(=O)c2cccnc2NCc2ccnc3ccccc23)ccc1C(C)(C)C` [Example 1072, N-(4-(1,1-dimethylethyl)-3-((N,N-dimethylglycyl)amino)phenyl)-2-((4-quinolinylmethyl)amino)-3-pyridinecarboxamide], the IC50 was below 50 nM. Next, `COc1cc(CNc2ncccc2C(=O)Nc2ccc3c(c2)CNCC32CC2)ccn1` [Example 1128, N-(4-Spiro-1′-cyclopropane-1,2,3,4-tetrahydroisoquinolin-7-yl)-2-[(2-methoxy-pyridin-4-ylmethyl)-amino]-nicotinamide]: below 50 nM; `CNc1cc(CNc2ncccc2C(=O)Nc2ccc3c(c2)NCC32CC2)ccn1` [Example 1107, N-(1,2-dihydroindol-3-spiro-1′-cyclopropane-6-yl)-2-[(2-methylaminopyridin-4-ylmethyl)-amino]-nicotinamide]: below 50 nM.
